Measurements taken from paper PMC11475408, “All‐Inorganic Polyoxometalates Act as Superchaotropic Membrane Carriers” (Advanced Materials (Deerfield Beach, Fla.), 2023).

Key:
[1] = CF transport assay in EYPC⊃CF vesicles (carrier activity); assay type: biochemical; design: key to Carrier activity: ‐ – ‐: No detectable activity at pH 5.5 and 7.4
Excerpt: The capability of POMs to act as membrane carriers was explored first in large unilamellar vesicles (LUVs) loaded with carboxyfluorescein (CF).^[ [54], [55] ^] We selected […] representative cationic peptides, heptaarginine (heptaArg), heptalysine (heptaLys), protamine, and polyarginine (polyArg), as test cargos. Inside the LUVs, the CF dye was encapsulated at self‐quenching concentrations. With a suitable carrier, heptaArg can be taken up into the vesicles, bind with entrapped CF, and shuttle back to the exterior, diluting the previously quenched CF, and thereby restoring its fluorescence (Figure 1c). In the time‐resolved fluorescence experiments (Figure 2a), to test whether a particular POM acts as molecular carrier, the CF emission was continuously monitored during the addition of the inorganic carrier (t = 60 s) and after injection of the impermeable selected cargo (t = 120 s). Toward the end of the experiment (t = 600 s), the surfactant Triton X‐100 was added to release all the entrapped CF and allow normalization of the intensity data.
A thin lipid film was prepared by evaporating a lipid solution of EYPC (egg yolk phosphatidylcholine, 25 mg) in CHCl3 (1 mL) with a stream of nitrogen and then dried in vacuo overnight. The dry film was rehydrated with 1 mL buffer (50 mM CF, 10 mM Hepes, pH 7.4 or 50 mM CF, 10 mM Tris, pH 7.4) for 30 min at room temperature, subjected to freeze–thaw cycles (7 times) and extrusions (15 times) through a polycarbonate membrane (pore size 100 nm). Extravesicular components were removed by size exclusion chromatography (NAP‐25 column Sephadex G‐25 DNA grade) with 10 mM Hepes, 107 mM NaCl, pH 7.4, or 10 mM Hepes, 107 mM NaCl, pH 7.4. Phospholipid concentration was calculated by the Stewart assay.^[ [81] ^]
Acidic vesicles were prepared analogously but the rehydration and elution buffer were 50 mM CF, 10 mM Mes, pH 5.5 and 10 mM Mes, 107 mM NaCl, pH 5.5. respectively.
Vesicles stock solutions (5–10 µL) were diluted with the corresponding buffer in a disposable plastic cuvette and gently stirred (total volume 2000 µL, final lipid concentration 13 µM). Carboxyfluorescein fluorescence was monitored at λ em = 517 nm (λ ex = 492 nm) as a function of time after addition of POMs at 60 s, analyte at 120 s and Triton X‐100 (24 µL 1.2% wt/vol) at 600 s to lyse the vesicles, for calibration. Fluorescence intensities were normalized to fractional emission as (1) It=It−I0/I∞−I0 where I 0 = I t before POM addition and […] after lysis. For Hill analysis, I t before lysis was defined as transport activity, Y, and plotted against POM concentration, c, and fitted to the Hill Equation (2), to afford the activity in absence of POM, Y 0, the maximal activity, Y max, the concentration needed to achieve 50% of maximal activity, EC 50, and the Hill coefficient, n (2) Y=Y0+Ymax−Y0/1+EC50/c^n
In the transport measurements, where different carriers (POMs) are tested with the same cargo, the activator efficiency (E) is determined by their capacity to transport the impermeable cargo to the intravesicular region and is characterized by Y max, its maximal activity, and EC 50, the effective activator concentration. An ideal carrier reaches high Y max at low EC 50. To count both factors, the activator efficiency is defined as (3) E=YmaxpEC50/f were pEC 50 is the negative logarithm of the EC 50, and f a scaling factor, which was set to 20.6 to calibrate the highest (previously known) activation efficiency, E, as 10.^[ [55] ^]

protamine = experiment: Supramolecular tandem assay of protamine hydrolysis (CX4/LCG); assay type: biochemical; settings: time scale of transport experiments (10 min); 0.5 µM protamine, LCG/CX4 reporter, 10 mM Hepes pH 7.5; POM 0-500 µM
Protocol: 5. Hydrolytic activity of [(PZrW11)2]8−
We devised a supramolecular tandem enzyme assay[25-29] to check to which degree [(PZrW11)2]8− promotes peptide fragmentation, which has been reported to occur on a time scale of days at 60 °C.[30-31] Supramolecular tandem assay is a technique that allows real-time continuous monitoring of enzymatic activity by following a change in the concentration of a substrate or product as it competitively displaces a fluorescent reporter dye from the cavity of a macrocyclic host.
The assay therefore relies on the differential binding of the macrocycle with the fluorescent dye, the enzymatic substrate, and the corresponding product.
We selected p-sulfonatocalix[4]arene (CX4) as macrocyclic host and lucigenin (LCG) as fluorescent dye, since protamine […]
conversion can be directly monitored through a decrease in fluorescence. Trypsin, which is an endopeptidase that hydrolyzes peptide bonds on the C -terminal side of the amino acid arginine ,[32-33] was used as an example, for comparison.
Only minor hydrolysis (<10%) of protamine by the [(PZrW11)2]8− was observed on the time scale relevant for the transport […]

[2] = Hydrolysis/stability of POMs in buffer by NMR
Protocol: First, their long‐term (24 h and longer) fate in aqueous solution (slightly acidic and neutral) was investigated by applying the active NMR nuclei in their composition (Table S9 and Figures S24–S37, see the Supporting Information for details).
NMR-spectroscopic characterization of identity and stability
NMR spectroscopy for all POMs tested was performed under experimental conditions.

[3] = 3 mM POM, 10 mM Hepes pH 7.5, 31P NMR integration

% parent anion, Hepes pH 7.5 after 1 day [2, 3]: 99%
% parent anion, Hepes pH 7.5 freshly prepared [2, 3]: 99%
Hydrolysis/stability pH 7.5 ([2]; 10 mM Hepes or Tris, 107 mM NaCl, pH 7.4, NMR, long-term (24 h and longer)): Stable
Stability at pH 7.5 by NMR (in words) ([2]; Hepes or Tris-HCl pH 7.5, 27Al, 31P or 183W NMR, fresh and aged 1-3 days): remain unchanged
Substance: (Et2NH2)8[{α‐P^VW^VI 11O39Zr^IV(µ‐OH)(H2O)}2]·7H2O [[(PZrW11)2]^8‒]
Carrier activity ([1]; EYPC vesicles, pH 5.5 and 7.4, cargos heptaArg, protamine, polyArg ([AlMo6]: heptaArg and protamine only)): ‐ – ‐ ^k)
Transport activity (in words) ([1]; EYPC⊃CF vesicles, neutral pH, carrier then cargo): neither transport activity nor membrane disruption was observed
Hydrolysis of protamine by the POM (protamine): < 10%
